Source: ChEMBL document CHEMBL1121776, “Folate antagonists. 18. Synthesis and antimalarial effects of N6-(arylmethyl)-N6-methyl-2,4,6-pteridinetriamines and related N6,N6-disubstituted 2,4,6-pteridinetriamines” (1981)
Converted amounts (≈) assume the structure as drawn.

System: Staphylococcus aureus
Assay: In vitro antibacterial effect against S. a. UC-76 by using gradient plate test
Type: functional
Settings: not given

Row | SMILES | MIC [µg/mL]
1 | CN(Cc1cc2ccccc2c2ccccc12)c1cnc2nc(N)nc(N)c2n1 | < 0.25
2 | COc1cc(Cc2cnc(N)nc2N)cc(OC)c1OC [TRIMETHOPRIM] | < 0.25

System: Mus musculus
Assay: Parenteral antimalarial effect against Plasmodium berghei in mice (Mus musculus) at a dose of 320 mg/kg subcutaneously; Number of mice (Mus musculus) surviving at 60 days post infection and cured 3/5
Type: functional
Settings: route subcutaneous

Row | SMILES | MST [days]
3 | Nc1nc(N)c2nc(N3CCCC3c3ccc(Cl)cc3)cnc2n1 (centres undefined) | 3

System: Mus musculus
Assay: Parenteral antimalarial effect against Plasmodium berghei in mice (Mus musculus) at a dose of 80 mg/kg subcutaneously
Type: functional
Settings: route subcutaneous

Row | SMILES | MST [days]
4 | COc1ccc2ccccc2c1CN(C)c1cnc2nc(N)nc(N)c2n1 | 0.2
5 | CN(Cc1cccc(Br)c1)c1cnc2nc(N)nc(N)c2n1 | 10.7
6 | CN(CCc1ccccc1)c1cnc2nc(N)nc(N)c2n1 | 0.1
7 | Nc1nc(N)c2nc(N3CCCCC3)cnc2n1 | 0.3
8 | CN(Cc1ccc2c(c1)Cc1ccccc1-2)c1cnc2nc(N)nc(N)c2n1 | 2
9 | COc1ccc(CN(C)c2cnc3nc(N)nc(N)c3n2)c2ccccc12 | 5
10 | CN(Cc1c2ccccc2cc2ccccc12)c1cnc2nc(N)nc(N)c2n1 | 0.1
11 | CC1(C)N=C(N)N=C(N)N1c1ccc(Cl)cc1.Cl [CHLORCYCLOGUANIL HYDROCHLORIDE] | 2

System: Mus musculus
Assay: Parenteral antimalarial effect against Plasmodium berghei in mice (Mus musculus) at a dose of 320 subcutaneously mg/kg; Number of mice (Mus musculus) surviving at 60 days post infection and cured 1/5
Type: functional
Settings: not given

Row | SMILES | MST [days]
12 | CN(Cc1cccc(Br)c1)c1cnc2nc(N)nc(N)c2n1 | 1

System: Escherichia coli
Assay: In vitro antibacterial effect against E. c. Vogel by using gradient plate test
Type: functional
Settings: not given

Row | SMILES | MIC [µg/mL]
13 | CN(Cc1cc2ccccc2c2ccccc12)c1cnc2nc(N)nc(N)c2n1 | > 25
14 | COc1cc(Cc2cnc(N)nc2N)cc(OC)c1OC [TRIMETHOPRIM] | > 25

System: Mus musculus
Assay: Parenteral antimalarial effect against Plasmodium berghei in mice (Mus musculus) at a dose of 640 subcutaneously mg/kg
Type: functional
Settings: not given

Row | SMILES | MST [days]
15 | CN(CCc1ccccc1)c1cnc2nc(N)nc(N)c2n1 | 3.9
16 | COc1ccc(CN(C)c2cnc3nc(N)nc(N)c3n2)c2ccccc12 | 5
17 | CC1(C)N=C(N)N=C(N)N1c1ccc(Cl)cc1.Cl [CHLORCYCLOGUANIL HYDROCHLORIDE] | 5

System: Mycobacterium tuberculosis
Assay: In vitro antibacterial effect against Mycobacterium tuberculosis H37Rv by using gradient plate test
Type: functional
Settings: not given

Row | SMILES | MIC [µg/mL]
18 | CN(CCc1ccccc1)c1cnc2nc(N)nc(N)c2n1 | > 25
19 | CN(Cc1ccc2c(c1)Cc1ccccc1-2)c1cnc2nc(N)nc(N)c2n1 | 5 (≈ 13.5 µM)
20 | COc1ccc(CN(C)c2cnc3nc(N)nc(N)c3n2)c2ccccc12 | 2.5 (≈ 6.92 µM)

System: Mus musculus
Assay: Parenteral antimalarial effect against Plasmodium berghei in mice (Mus musculus) at a dose of 320 subcutaneous mg/kg
Type: functional
Settings: not given

Row | SMILES | MST [days]
21 | COc1ccc2ccccc2c1CN(C)c1cnc2nc(N)nc(N)c2n1 | 0.2
22 | CN(CCc1ccccc1)c1cnc2nc(N)nc(N)c2n1 | 1.7
23 | Nc1nc(N)c2nc(N3CCCCC3)cnc2n1 | 0.9
24 | CN(Cc1ccc2c(c1)Cc1ccccc1-2)c1cnc2nc(N)nc(N)c2n1 | 5
25 | COc1ccc(CN(C)c2cnc3nc(N)nc(N)c3n2)c2ccccc12 | 5
26 | CN(Cc1c2ccccc2cc2ccccc12)c1cnc2nc(N)nc(N)c2n1 | 1.3
27 | CC1(C)N=C(N)N=C(N)N1c1ccc(Cl)cc1.Cl [CHLORCYCLOGUANIL HYDROCHLORIDE] | 3

System: Shigella sonnei
Assay: In vitro antibacterial effect against Shigella sonnei C-10 by using gradient plate test
Type: functional
Settings: not given

Row | SMILES | MIC [µg/mL]
28 | CN(CCc1ccccc1)c1cnc2nc(N)nc(N)c2n1 | > 25
29 | CN(Cc1ccc2c(c1)Cc1ccccc1-2)c1cnc2nc(N)nc(N)c2n1 | > 25
30 | COc1ccc(CN(C)c2cnc3nc(N)nc(N)c3n2)c2ccccc12 | > 25

System: Mus musculus
Assay: Parenteral antimalarial effect against Plasmodium berghei in mice (Mus musculus) at a dose of 160 subcutaneously mg/kg
Type: functional
Settings: not given

Row | SMILES | MST [days]
31 | CN(Cc1cccc(Br)c1)c1cnc2nc(N)nc(N)c2n1 | 12.8
32 | CN(CCc1ccccc1)c1cnc2nc(N)nc(N)c2n1 | 0.7
33 | CN(Cc1ccc2c(c1)Cc1ccccc1-2)c1cnc2nc(N)nc(N)c2n1 | 5
34 | COc1ccc(CN(C)c2cnc3nc(N)nc(N)c3n2)c2ccccc12 | 5
35 | CC1(C)N=C(N)N=C(N)N1c1ccc(Cl)cc1.Cl [CHLORCYCLOGUANIL HYDROCHLORIDE] | 5

System: Mus musculus
Assay: Parenteral antimalarial effect against Plasmodium berghei in mice (Mus musculus) at a dose of 80 mg/kg subcutaneously; Number of mice (Mus musculus) surviving at 60 days post infection and cured 2/5
Type: functional
Settings: route subcutaneous

Row | SMILES | MST [days]
36 | Nc1nc(N)c2nc(N3CCCC3c3ccc(Cl)cc3)cnc2n1 (centres undefined) | 2

System: Mycobacterium tuberculosis
Assay: In vitro antibacterial effect against M. t. H37Rv by using gradient plate test
Type: functional
Settings: not given

Row | SMILES | MIC [µg/mL]
37 | COc1cc(Cc2cnc(N)nc2N)cc(OC)c1OC [TRIMETHOPRIM] | > 25

System: Escherichia coli
Assay: In vitro antibacterial effect against Escherichia coli Vogel by using gradient plate test
Type: functional
Settings: not given

Row | SMILES | MIC [µg/mL]
38 | CN(CCc1ccccc1)c1cnc2nc(N)nc(N)c2n1 | > 25
39 | CN(Cc1ccc2c(c1)Cc1ccccc1-2)c1cnc2nc(N)nc(N)c2n1 | > 25
40 | COc1ccc(CN(C)c2cnc3nc(N)nc(N)c3n2)c2ccccc12 | > 25

System: Pseudomonas aeruginosa
Assay: In vitro antibacterial effect against P.a 28 by using gradient plate test
Type: functional
Settings: not given

Row | SMILES | MIC [µg/mL]
41 | CN(Cc1cc2ccccc2c2ccccc12)c1cnc2nc(N)nc(N)c2n1 | > 25
42 | COc1cc(Cc2cnc(N)nc2N)cc(OC)c1OC [TRIMETHOPRIM] | > 25

System: Mus musculus
Assay: Parenteral antimalarial effect against Plasmodium berghei in mice (Mus musculus) at a dose of 10sc mg/kg
Type: functional
Settings: not given

Row | SMILES | MST [days]
43 | Nc1nc(N)c2nc(N3CCCC3c3ccc(Cl)cc3)cnc2n1 (centres undefined) | 7.9
44 | CN(Cc1ccc2c(c1)Cc1ccccc1-2)c1cnc2nc(N)nc(N)c2n1 | 3.5

System: Enterococcus faecalis
Assay: In vitro antibacterial effect against S. f MGH-2
Type: functional
Settings: not given

Row | SMILES | MIC [µg/mL]
45 | CN(Cc1cc2ccccc2c2ccccc12)c1cnc2nc(N)nc(N)c2n1 | < 0.25
46 | COc1cc(Cc2cnc(N)nc2N)cc(OC)c1OC [TRIMETHOPRIM] | < 0.25

System: Shigella sonnei
Assay: In vitro antibacterial effect against S. s C-10 by using gradient plate test
Type: functional
Settings: not given

Row | SMILES | MIC [µg/mL]
47 | CN(Cc1cc2ccccc2c2ccccc12)c1cnc2nc(N)nc(N)c2n1 | > 25
48 | COc1cc(Cc2cnc(N)nc2N)cc(OC)c1OC [TRIMETHOPRIM] | > 25

System: Pseudomonas aeruginosa
Assay: In vitro antibacterial effect against Pseudomonas aeruginosa 28 by using gradient plate test
Type: functional
Settings: not given

Row | SMILES | MIC [µg/mL]
49 | CN(CCc1ccccc1)c1cnc2nc(N)nc(N)c2n1 | > 25
50 | CN(Cc1ccc2c(c1)Cc1ccccc1-2)c1cnc2nc(N)nc(N)c2n1 | > 25
51 | COc1ccc(CN(C)c2cnc3nc(N)nc(N)c3n2)c2ccccc12 | > 25

System: Mus musculus
Assay: Parenteral antimalarial effect against Plasmodium berghei in mice (Mus musculus) at a dose of 40 mg/kg subcutaneously
Type: functional
Settings: route subcutaneous

Row | SMILES | MST [days]
52 | Nc1nc(N)c2nc(N3CCCC3c3ccc(Cl)cc3)cnc2n1 (centres undefined) | 12.1
53 | CN(Cc1cccc(Br)c1)c1cnc2nc(N)nc(N)c2n1 | 10.2
54 | CN(CCc1ccccc1)c1cnc2nc(N)nc(N)c2n1 | 0.1
55 | CN(Cc1ccc2c(c1)Cc1ccccc1-2)c1cnc2nc(N)nc(N)c2n1 | 8.1
56 | COc1ccc(CN(C)c2cnc3nc(N)nc(N)c3n2)c2ccccc12 | 5
57 | CC1(C)N=C(N)N=C(N)N1c1ccc(Cl)cc1.Cl [CHLORCYCLOGUANIL HYDROCHLORIDE] | 1

System: Staphylococcus aureus
Assay: In vitro antibacterial effect against S. a. S18713 by using gradient plate test
Type: functional
Settings: not given

Row | SMILES | MIC [µg/mL]
58 | CN(Cc1cc2ccccc2c2ccccc12)c1cnc2nc(N)nc(N)c2n1 | < 0.25
59 | COc1cc(Cc2cnc(N)nc2N)cc(OC)c1OC [TRIMETHOPRIM] | < 0.25

System: Staphylococcus aureus
Assay: In vitro antibacterial effect against Staphylococcus aureus S18713 by using gradient plate test
Type: functional
Settings: not given

Row | SMILES | MIC [µg/mL]
60 | CN(CCc1ccccc1)c1cnc2nc(N)nc(N)c2n1 | < 0.25
61 | CN(Cc1ccc2c(c1)Cc1ccccc1-2)c1cnc2nc(N)nc(N)c2n1 | < 0.25
62 | COc1ccc(CN(C)c2cnc3nc(N)nc(N)c3n2)c2ccccc12 | < 0.25

System: Staphylococcus aureus
Assay: In vitro antibacterial effect against Staphylococcus aureus UC-76 by using gradient plate test
Type: functional
Settings: not given

Row | SMILES | MIC [µg/mL]
63 | CN(CCc1ccccc1)c1cnc2nc(N)nc(N)c2n1 | < 0.25
64 | CN(Cc1ccc2c(c1)Cc1ccccc1-2)c1cnc2nc(N)nc(N)c2n1 | < 0.25
65 | COc1ccc(CN(C)c2cnc3nc(N)nc(N)c3n2)c2ccccc12 | < 0.25

System: Mus musculus
Assay: Parenteral antimalarial effect against Plasmodium berghei in mice (Mus musculus) at a dose of 20sc mg/kg
Type: functional
Settings: not given

Row | SMILES | MST [days]
66 | COc1ccc2ccccc2c1CN(C)c1cnc2nc(N)nc(N)c2n1 | 0.2
67 | Nc1nc(N)c2nc(N3CCCC3c3ccc(Cl)cc3)cnc2n1 (centres undefined) | 10.1
68 | CN(Cc1cccc(Br)c1)c1cnc2nc(N)nc(N)c2n1 | 6.9
69 | CN(CCc1ccccc1)c1cnc2nc(N)nc(N)c2n1 | 0.1
70 | Nc1nc(N)c2nc(N3CCCCC3)cnc2n1 | 0.3
71 | CN(Cc1ccc2c(c1)Cc1ccccc1-2)c1cnc2nc(N)nc(N)c2n1 | 6.3
72 | COc1ccc(CN(C)c2cnc3nc(N)nc(N)c3n2)c2ccccc12 | 6.5
73 | CN(Cc1c2ccccc2cc2ccccc12)c1cnc2nc(N)nc(N)c2n1 | 0.1
74 | CC1(C)N=C(N)N=C(N)N1c1ccc(Cl)cc1.Cl [CHLORCYCLOGUANIL HYDROCHLORIDE] | 7.9

System: Mus musculus
Assay: Parenteral antimalarial effect against Plasmodium berghei in mice (Mus musculus) at a dose of 640 subcutaneously mg/kg; Number of mice (Mus musculus) surviving at 60 days post infection and cured 4/10
Type: functional
Settings: not given

Row | SMILES | MST [days]
75 | CN(Cc1cccc(Br)c1)c1cnc2nc(N)nc(N)c2n1 | 4

System: Mus musculus
Assay: Parenteral antimalarial effect against Plasmodium berghei in mice (Mus musculus) at a dose of 160 mg/kg subcutaneously; Number of mice (Mus musculus) surviving at 60 days post infection and cured 3/5
Type: functional
Settings: route subcutaneous

Row | SMILES | MST [days]
76 | Nc1nc(N)c2nc(N3CCCC3c3ccc(Cl)cc3)cnc2n1 (centres undefined) | 3

System: Enterococcus faecalis
Assay: In vitro antibacterial effect against Streptococcus faecalis MGH-2
Type: functional
Settings: not given

Row | SMILES | MIC [µg/mL]
77 | CN(CCc1ccccc1)c1cnc2nc(N)nc(N)c2n1 | < 0.25
78 | CN(Cc1ccc2c(c1)Cc1ccccc1-2)c1cnc2nc(N)nc(N)c2n1 | < 0.25
79 | COc1ccc(CN(C)c2cnc3nc(N)nc(N)c3n2)c2ccccc12 | < 0.25
